Experimental findings from EP1953147A1, “HETEROCYCLIC COMPOUND AND MEDICINAL APPLICATION THEREOF” (priority 2005, dated 2007) are described below.

Molecules are shown by their SMILES. Structures can show the parent of a compound that is named as a salt. Bounds are passed on as bounds.

The experiment concerns ΔG/SEAP/HCV E1E2. Nature of the experiment: Effect of test substance on cell infection with HCV pseudotype virus (SEAP reporter assay in HepG2 cells). In kind it is cell-based. The note with it: Hepatitis C virus. In general terms: Reporter assays use an easily measured gene product as a stand-in for the process of interest.
As for `COc1cc(OC)cc(-c2nn(-c3cc(NCCCN)ccc3C(F)(F)F)c(=O)c3c2CCC3)c1` [Example 127, 2-[5-(3-amino-propylamino)-2-trifluoromethylphenyl]-4-(3,5-dimethoxy-phenyl)-2,5,6,7-tetrahydro-cyclopenta[d]pyridazin-1-one hydrochloride], the half-maximal inhibitory concentration (IC50) was below 100 nM. The compound `O=c1c2c(c(-c3cccc(Cl)c3)nn1-c1cc(N3CC[C@H](O)C3)ccc1C(F)(F)F)CCC2` [Example 72, 4-(3-chloro-phenyl)-2-[5-((S)-3-hydroxy-pyrrolidin-1-yl)-2-trifluoromethyl-phenyl]-2,5,6,7-tetrahydro-cyclopenta[d]pyridazin-1-one] registered an IC50 below 100 nM. `COc1cc(OC)cc(-c2nn(-c3cc(C)ccc3C(F)(F)F)c(=O)c3c2CCC3)c1` [Example 88, 4-(3,5-dimethoxy-phenyl)-2-(5-methyl-2-trifluoromethyl-phenyl)-2,5,6,7-tetrahydro-cyclopenta[d]pyridazin-1-one] yielded an IC50 below 100 nM. In turn, `COc1cc(OC)cc(-c2nn(-c3cc(N4CC[C@@H](O)C4)ccc3C(F)(F)F)c(=O)c3c2CCN3)c1` [Example 24, 4-(3,5-dimethoxy-phenyl)-6-[5-((R)-3-hydroxy-pyrrolidin-1-yl)-2-trifluoromethyl-phenyl]-1,2,3,6-tetrahydro-pyrrolo[2,3-d]pyridazin-7-one] returned an IC50 below 100 nM. On to `COc1cc(-c2nn(-c3cc(N4CC[C@H](O)C4)ccc3C(F)(F)F)c(=O)c3c2CCC3)ccn1` [Example 93, 2-[5-((S)-3-hydroxy-pyrrolidin-1-yl)-2-trifluoromethyl-phenyl]-4-(2-methoxy-pyridin-4-yl)-2,5,6,7-tetrahydro-cyclopenta[d]pyridazin-1-one], for which the IC50 lay within 100 to 10000 nM. As to `COc1cc(OC)cc(-c2nn(-c3cc(N4CC[C@@H](O)C4)ccc3C(F)(F)F)c(=O)c3c2CCN3C(=O)OC(C)(C)C)c1` [Example 59, 4-(3,5-dimethoxy-phenyl)-6-[5-((R)-3-hydroxy-pyrrolidin-1-yl)-2-trifluoromethyl-phenyl]-7-oxo-2,3,6,7-tetrahydro-pyrrolo[2,3-d]pyridazine-1-carboxylic acid tert-butyl ester], the IC50 is below 100 nM. The compound `COc1cc(OC)cc(-c2nn(-c3cc(N4CC[C@H](O)C4)ccc3C(F)(F)F)c(=O)c3c2CCN3CC(=O)NCCCN2CCN(CCCNC(C)=O)CC2)c1` [Example 56, N-{3-[4-(3-acetylamino-propyl)-piperazin-1-yl]-propyl}-2-{4-(3,5-dimethoxy-phenyl)-6-[5-((S)-3-hydroxy-pyrrolidin-1-yl)-2-trifluoromethyl-phenyl]-7-oxo-2,3,6,7-tetrahydro-pyrrolo[2,3-d]pyridazin-1-yl}-acetamide] came in with an IC50 of 100 to 10000 nM. The compound `Cc1ccccc1-c1nn(-c2cc(N3CC[C@H](O)C3)ccc2C(F)(F)F)c(=O)c2c1CCC2` [Example 133, 2-[5-((S)-3-hydroxy-pyrrolidin-1-yl)-2-trifluoromethyl-phenyl]-4-o-tolyl-2,5,6,7-tetrahydro-cyclopenta[d]pyridazin-1-one] had an IC50 of 100 to 10000 nM. Consider `O=c1c2c(c(-c3ccccn3)nn1-c1cc(N3CC[C@H](O)C3)ccc1C(F)(F)F)CCC2` [Example 110, 2-[5-((S)-3-hydroxy-pyrrolidin-1-yl)-2-trifluoromethyl-phenyl]-4-pyridin-2-yl-2,5,6,7-tetrahydro-cyclopenta[d]pyridazin-1-one], for which the IC50 lay within 100 to 10000 nM. On to `CCC(=O)Nc1ccc(C(F)(F)F)c(-n2nc(-c3cc(OC)cc(OC)c3)c3c(c2=O)CCC3)c1` [Example 57, N-{3-[4-(3,5-dimethoxy-phenyl)-1-oxo-1,5,6,7-tetrahydro-cyclopenta[d]pyridazin-2-yl]-4-trifluoromethyl-phenyl}-propionamide], for which the IC50 was below 100 nM. For the compound `Cc1cc(C)cc(-c2nn(-c3cc(-c4cccnn4)ccc3C(F)(F)F)c(=O)c3c2CCN3)c1` [Example 10, 4-(3,5-dimethyl-phenyl)-6-(5-pyridazin-3-yl-2-trifluoromethyl-phenyl)-1,2,3,6-tetrahydro-pyrrolo[2,3-d]pyridazin-7-one], the IC50 was below 100 nM. `COc1cc(OC)cc(-c2nn(-c3cc(N4CCCC4)ccc3C(F)(F)F)c(=O)c3c2CCN3)c1` [Example 37, 4-(3,5-dimethoxy-phenyl)-6-(5-pyrrolidin-1-yl-2-trifluoromethyl-phenyl)-1,2,3,6-tetrahydro-pyrrolo[2,3-d]pyridazin-7-one] gave an IC50 below 100 nM.

`COc1cc(OC)cc(-c2nn(-c3ccc(Br)cc3C(F)(F)F)c(=O)c3c2CCC3)c1` [Example 106, 2-(4-bromo-2-trifluoromethyl-phenyl)-4-(3,5-dimethoxy-phenyl)-2,5,6,7-tetrahydro-cyclopenta[d]pyridazin-1-one] registered a 50% inhibitory concentration (IC50) of 100 to 10000 nM. As for `COc1cc(OC)cc(-c2nn(-c3cc(NCCc4ccccc4)ccc3C(F)(F)F)c(=O)c3c2CCC3)c1` [Example 136, 4-(3,5-dimethoxy-phenyl)-2-(5-phenethylamino-2-trifluoromethyl-phenyl)-2,5,6,7-tetrahydro-cyclopenta[d]pyridazin-1-one], the figure is below 100 nM; as for `COc1cc(OC)cc(-c2nn(-c3cc(N4CCC4)ccc3C(F)(F)F)c(=O)c3c2CCC3)c1` [Example 71, 2-(5-azetidin-1-yl-2-trifluoromethyl-phenyl)-4-(3,5-dimethoxy-phenyl)-2,5,6,7-tetrahydro-cyclopenta[d]pyridazin-1-one], below 100 nM.

For `COc1cc(C)cc(-c2nn(-c3cc(N4CC[C@H](O)C4)ccc3C(F)(F)F)c(=O)c3c2CCN3)c1` [Example 14, 6-[5-((S)-3-hydroxy-pyrrolidin-1-yl)-2-trifluoromethyl-phenyl]-4-(3-methoxy-5-methyl-phenyl)-1,2,3,6-tetrahydro-pyrrolo[2,3-d]pyridazin-7-one], the half-inhibitory concentration (IC50) is below 100 nM.

`Cc1cc(C)cc(-c2nn(-c3cc(N4CC[C@H](O)C4)ccc3C(F)(F)F)c(=O)c3c2CCN3)c1` [Example 11, 4-(3,5-dimethyl-phenyl)-6-[5-((S)-3-hydroxy-pyrrolidin-1-yl)-2-trifluoromethyl-phenyl]-1,2,3,6-tetrahydro-pyrrolo[2,3-d]pyridazin-7-one] came in with a half-maximal inhibitory concentration (IC50) below 100 nM. The compound `CCc1ccc(C(F)(F)F)c(-n2nc(-c3cc(OC)cc(OC)c3)c3c(c2=O)CCC3)c1` [Example 89, 4-(3,5-dimethoxy-phenyl)-2-(5-ethyl-2-trifluoromethyl-phenyl)-2,5,6,7-tetrahydro-cyclopenta[d]pyridazin-1-one] showed an IC50 below 100 nM.

As a reminder, the IC50 is the concentration that inhibits the measured activity by half. A higher IC50 goes with a need for much substance.
